Columns and labels:
Assay in all cases: biochemical
Assay type in all cases: biochemical
[1] = molecular target: 363 human kinases (including Aurora A/B/C) (Homo sapiens, UniProt Q96RG2); details: PASK; for remaining activity at 0.1 µM: 100 nM; for remaining activity at 0.1 µM / remaining activity at 0.5 µM: read-out: % Enzyme Activity (relative to DMSO controls)
Source text: (§1) However, the Aurora A/B selectivity ratios derived from our in vitro and in vivo data can be compared to prioritize inhibitors.

[2] = molecular target: 363 human kinases (including Aurora A/B/C) (Homo sapiens, UniProt Q8IU85); details: CAMK1d, [ATP] 2.5 µM; for remaining activity at 0.1 µM: 100 nM; for remaining activity at 0.1 µM / remaining activity at 0.5 µM: read-out: % Enzyme Activity (relative to DMSO controls)
Chain of 363 human kinases (including Aurora A/B/C) (Homo sapiens, UniProt Q8IU85) (Q8IU85 whole entry): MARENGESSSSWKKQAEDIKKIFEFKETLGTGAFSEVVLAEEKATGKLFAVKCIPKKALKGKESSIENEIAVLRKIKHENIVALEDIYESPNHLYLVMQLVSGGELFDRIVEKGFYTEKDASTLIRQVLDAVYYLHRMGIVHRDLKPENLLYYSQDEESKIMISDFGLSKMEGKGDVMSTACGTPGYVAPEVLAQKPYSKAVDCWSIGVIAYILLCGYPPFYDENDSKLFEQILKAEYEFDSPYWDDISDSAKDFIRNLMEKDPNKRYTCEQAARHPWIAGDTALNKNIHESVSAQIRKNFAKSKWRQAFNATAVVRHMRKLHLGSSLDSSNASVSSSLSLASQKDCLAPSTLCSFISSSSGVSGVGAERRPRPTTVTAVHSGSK
Source text: as §1

[3] = molecular target: 363 human kinases (including Aurora A/B/C) (Homo sapiens, UniProt P12931); details: c-Src, [ATP] 100 µM; for remaining activity at 0.1 µM: 100 nM; for remaining activity at 0.1 µM / remaining activity at 0.5 µM: read-out: % Enzyme Activity (relative to DMSO controls)
Source text: as §1

[4] = molecular target: T1, 363 human kinases (including Aurora A/B/C) (Homo sapiens, UniProt Q04771); details: ALK2/ACVR1, [ATP] 20 µM; for remaining activity at 0.1 µM: 100 nM; for remaining activity at 0.1 µM / remaining activity at 0.5 µM: read-out: % Enzyme Activity (relative to DMSO controls)
T1 sequence (Q04771 21-509): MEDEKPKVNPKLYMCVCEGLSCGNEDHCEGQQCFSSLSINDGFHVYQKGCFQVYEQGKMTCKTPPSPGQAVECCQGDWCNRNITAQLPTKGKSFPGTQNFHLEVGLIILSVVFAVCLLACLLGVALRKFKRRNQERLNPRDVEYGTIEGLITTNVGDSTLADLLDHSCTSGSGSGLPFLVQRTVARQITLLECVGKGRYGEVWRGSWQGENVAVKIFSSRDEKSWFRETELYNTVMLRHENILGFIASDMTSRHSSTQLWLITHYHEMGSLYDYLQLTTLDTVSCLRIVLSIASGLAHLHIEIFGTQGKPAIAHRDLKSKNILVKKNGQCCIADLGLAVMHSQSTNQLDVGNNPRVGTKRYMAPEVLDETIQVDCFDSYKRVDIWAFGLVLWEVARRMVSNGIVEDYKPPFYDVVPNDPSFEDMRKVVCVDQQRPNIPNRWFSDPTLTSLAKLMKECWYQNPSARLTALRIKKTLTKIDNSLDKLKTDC
Source text: as §1

[5] = molecular target: 363 human kinases (including Aurora A/B/C) (Homo sapiens, UniProt P45984); details: JNK2; for remaining activity at 0.1 µM: 100 nM; for remaining activity at 0.1 µM / remaining activity at 0.5 µM: read-out: % Enzyme Activity (relative to DMSO controls)
Chain of 363 human kinases (including Aurora A/B/C) (Homo sapiens, UniProt P45984) (P45984 whole entry): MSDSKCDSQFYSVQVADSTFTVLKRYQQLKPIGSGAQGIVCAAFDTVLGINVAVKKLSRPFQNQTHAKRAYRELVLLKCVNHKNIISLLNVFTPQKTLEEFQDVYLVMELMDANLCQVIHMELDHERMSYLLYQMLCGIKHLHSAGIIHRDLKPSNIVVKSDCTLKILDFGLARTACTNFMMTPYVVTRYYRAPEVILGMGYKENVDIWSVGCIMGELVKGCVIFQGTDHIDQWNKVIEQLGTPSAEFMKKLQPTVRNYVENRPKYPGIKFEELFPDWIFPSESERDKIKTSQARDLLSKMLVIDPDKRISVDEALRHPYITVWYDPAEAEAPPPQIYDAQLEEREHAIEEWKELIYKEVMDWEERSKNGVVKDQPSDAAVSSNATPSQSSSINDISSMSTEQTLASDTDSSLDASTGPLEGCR
Source text: as §1

[6] = molecular target: T2, 363 human kinases (including Aurora A/B/C) (Homo sapiens, UniProt Q6XUX3); details: RIPK5; for remaining activity at 0.1 µM: 100 nM; for remaining activity at 0.1 µM / remaining activity at 0.5 µM: read-out: % Enzyme Activity (relative to DMSO controls)
T2 sequence (Q6XUX3 1-929): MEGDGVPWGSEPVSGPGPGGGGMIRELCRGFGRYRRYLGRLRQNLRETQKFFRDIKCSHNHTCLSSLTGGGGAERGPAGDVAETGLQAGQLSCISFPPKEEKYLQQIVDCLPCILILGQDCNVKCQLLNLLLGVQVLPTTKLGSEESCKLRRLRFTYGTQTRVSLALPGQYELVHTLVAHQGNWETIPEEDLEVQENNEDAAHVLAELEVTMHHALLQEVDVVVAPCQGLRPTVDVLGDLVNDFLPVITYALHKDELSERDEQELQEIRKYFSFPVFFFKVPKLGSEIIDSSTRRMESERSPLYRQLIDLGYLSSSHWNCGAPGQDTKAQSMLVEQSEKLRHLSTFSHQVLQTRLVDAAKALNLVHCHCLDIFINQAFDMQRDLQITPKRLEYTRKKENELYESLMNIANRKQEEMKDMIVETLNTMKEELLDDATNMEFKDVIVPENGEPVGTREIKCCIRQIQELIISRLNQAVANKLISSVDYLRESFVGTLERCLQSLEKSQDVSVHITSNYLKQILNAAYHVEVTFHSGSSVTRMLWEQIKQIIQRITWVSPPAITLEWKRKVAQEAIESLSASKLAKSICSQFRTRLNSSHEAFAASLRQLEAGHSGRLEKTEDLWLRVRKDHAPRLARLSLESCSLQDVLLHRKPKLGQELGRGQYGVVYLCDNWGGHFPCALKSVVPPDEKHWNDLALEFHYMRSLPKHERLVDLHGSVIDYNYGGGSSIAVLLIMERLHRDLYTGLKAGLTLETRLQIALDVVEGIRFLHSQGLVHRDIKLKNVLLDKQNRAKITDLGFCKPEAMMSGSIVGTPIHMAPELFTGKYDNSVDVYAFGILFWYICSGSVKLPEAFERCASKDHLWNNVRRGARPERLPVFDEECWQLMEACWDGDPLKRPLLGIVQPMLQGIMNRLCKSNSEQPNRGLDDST
Source text: as §1

[7] = molecular target: 363 human kinases (including Aurora A/B/C) (Homo sapiens, UniProt P49761); details: CLK3, [ATP] 10 µM; for remaining activity at 0.1 µM: 100 nM; for remaining activity at 0.1 µM / remaining activity at 0.5 µM: read-out: % Enzyme Activity (relative to DMSO controls)
Chain of 363 human kinases (including Aurora A/B/C) (Homo sapiens, UniProt P49761) (P49761 whole entry): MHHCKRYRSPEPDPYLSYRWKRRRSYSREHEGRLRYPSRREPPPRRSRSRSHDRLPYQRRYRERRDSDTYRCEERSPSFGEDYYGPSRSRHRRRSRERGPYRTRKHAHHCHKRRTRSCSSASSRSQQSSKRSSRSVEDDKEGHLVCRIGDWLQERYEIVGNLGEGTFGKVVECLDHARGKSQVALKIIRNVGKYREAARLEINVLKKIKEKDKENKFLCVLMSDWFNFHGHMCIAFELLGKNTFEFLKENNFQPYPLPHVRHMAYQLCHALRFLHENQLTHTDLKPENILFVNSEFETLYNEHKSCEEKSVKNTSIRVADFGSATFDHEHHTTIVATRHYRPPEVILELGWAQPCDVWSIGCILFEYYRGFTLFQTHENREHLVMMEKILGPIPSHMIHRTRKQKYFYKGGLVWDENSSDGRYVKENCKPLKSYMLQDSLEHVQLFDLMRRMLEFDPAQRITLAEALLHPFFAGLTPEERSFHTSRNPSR
Source text: as §1

[8] = molecular target: 363 human kinases (including Aurora A/B/C) (Homo sapiens, UniProt P34947); details: GRK5; for remaining activity at 0.1 µM: 100 nM; for remaining activity at 0.1 µM / remaining activity at 0.5 µM: read-out: % Enzyme Activity (relative to DMSO controls)
Chain of 363 human kinases (including Aurora A/B/C) (Homo sapiens, UniProt P34947) (P34947 whole entry): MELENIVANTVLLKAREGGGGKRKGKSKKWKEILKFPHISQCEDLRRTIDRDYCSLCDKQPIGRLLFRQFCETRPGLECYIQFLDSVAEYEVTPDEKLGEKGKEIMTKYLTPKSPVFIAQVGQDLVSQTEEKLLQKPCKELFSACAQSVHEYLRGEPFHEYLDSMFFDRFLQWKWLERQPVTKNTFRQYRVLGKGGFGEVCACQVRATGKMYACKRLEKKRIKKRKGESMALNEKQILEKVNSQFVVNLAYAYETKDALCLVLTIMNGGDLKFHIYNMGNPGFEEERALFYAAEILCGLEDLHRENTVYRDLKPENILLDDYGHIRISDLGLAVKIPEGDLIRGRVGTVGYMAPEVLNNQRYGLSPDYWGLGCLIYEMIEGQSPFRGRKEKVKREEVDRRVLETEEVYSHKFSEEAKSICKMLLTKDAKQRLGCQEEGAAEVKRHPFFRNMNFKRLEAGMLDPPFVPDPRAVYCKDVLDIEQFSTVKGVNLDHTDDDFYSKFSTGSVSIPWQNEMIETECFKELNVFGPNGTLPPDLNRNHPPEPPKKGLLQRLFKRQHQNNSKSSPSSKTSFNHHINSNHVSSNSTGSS
Source text: as §1

[9] = molecular target: 363 human kinases (including Aurora A/B/C) (Homo sapiens, UniProt P29317); details: EPHA2, [ATP] 50 µM; for remaining activity at 0.1 µM: 100 nM; for remaining activity at 0.1 µM / remaining activity at 0.5 µM: read-out: % Enzyme Activity (relative to DMSO controls)
Source text: as §1

[10] = molecular target: 363 human kinases (including Aurora A/B/C) (Homo sapiens, UniProt P53355); details: DAPK1, [ATP] 10 µM; for remaining activity at 0.1 µM: 100 nM; for remaining activity at 0.1 µM / remaining activity at 0.5 µM: read-out: % Enzyme Activity (relative to DMSO controls)
Chain of 363 human kinases (including Aurora A/B/C) (Homo sapiens, UniProt P53355) (P53355 whole entry): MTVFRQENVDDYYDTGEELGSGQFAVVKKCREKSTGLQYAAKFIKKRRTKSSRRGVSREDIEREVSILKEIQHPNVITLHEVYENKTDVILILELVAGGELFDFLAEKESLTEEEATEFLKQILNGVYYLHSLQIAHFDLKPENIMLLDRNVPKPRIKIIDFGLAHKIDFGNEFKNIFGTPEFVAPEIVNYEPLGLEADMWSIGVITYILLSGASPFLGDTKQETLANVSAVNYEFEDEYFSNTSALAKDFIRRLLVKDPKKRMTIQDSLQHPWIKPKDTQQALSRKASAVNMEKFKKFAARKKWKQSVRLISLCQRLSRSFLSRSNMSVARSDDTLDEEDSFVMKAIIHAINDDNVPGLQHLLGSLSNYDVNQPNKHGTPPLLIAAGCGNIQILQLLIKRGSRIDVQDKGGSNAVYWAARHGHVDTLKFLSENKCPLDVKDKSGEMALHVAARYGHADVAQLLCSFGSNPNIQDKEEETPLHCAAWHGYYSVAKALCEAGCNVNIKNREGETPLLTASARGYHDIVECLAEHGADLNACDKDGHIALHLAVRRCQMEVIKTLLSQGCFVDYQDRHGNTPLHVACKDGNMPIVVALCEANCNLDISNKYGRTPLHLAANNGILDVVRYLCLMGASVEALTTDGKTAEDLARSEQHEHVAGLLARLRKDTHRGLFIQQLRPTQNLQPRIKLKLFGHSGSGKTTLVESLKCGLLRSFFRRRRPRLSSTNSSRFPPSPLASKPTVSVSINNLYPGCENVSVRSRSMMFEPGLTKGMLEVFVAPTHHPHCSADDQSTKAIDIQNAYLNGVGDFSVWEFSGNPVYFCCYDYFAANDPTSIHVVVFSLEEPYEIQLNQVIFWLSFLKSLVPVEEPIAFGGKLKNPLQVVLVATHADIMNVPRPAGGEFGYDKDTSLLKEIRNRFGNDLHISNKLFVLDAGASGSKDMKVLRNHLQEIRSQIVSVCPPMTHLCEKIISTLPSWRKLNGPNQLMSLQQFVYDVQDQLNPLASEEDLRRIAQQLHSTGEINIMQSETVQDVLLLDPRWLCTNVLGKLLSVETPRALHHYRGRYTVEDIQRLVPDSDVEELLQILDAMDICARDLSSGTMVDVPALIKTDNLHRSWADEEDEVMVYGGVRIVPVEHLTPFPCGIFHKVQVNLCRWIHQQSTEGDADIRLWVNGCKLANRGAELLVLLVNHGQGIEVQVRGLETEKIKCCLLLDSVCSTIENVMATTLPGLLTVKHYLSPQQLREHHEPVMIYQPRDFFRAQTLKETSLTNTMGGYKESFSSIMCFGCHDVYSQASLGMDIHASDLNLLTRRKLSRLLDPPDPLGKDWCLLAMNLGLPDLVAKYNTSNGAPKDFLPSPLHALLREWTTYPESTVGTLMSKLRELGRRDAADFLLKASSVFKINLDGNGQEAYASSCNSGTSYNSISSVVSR
Source text: as §1

Chain of 363 human kinases (including Aurora A/B/C) (Homo sapiens, UniProt Q96RG2) (Q96RG2 whole entry): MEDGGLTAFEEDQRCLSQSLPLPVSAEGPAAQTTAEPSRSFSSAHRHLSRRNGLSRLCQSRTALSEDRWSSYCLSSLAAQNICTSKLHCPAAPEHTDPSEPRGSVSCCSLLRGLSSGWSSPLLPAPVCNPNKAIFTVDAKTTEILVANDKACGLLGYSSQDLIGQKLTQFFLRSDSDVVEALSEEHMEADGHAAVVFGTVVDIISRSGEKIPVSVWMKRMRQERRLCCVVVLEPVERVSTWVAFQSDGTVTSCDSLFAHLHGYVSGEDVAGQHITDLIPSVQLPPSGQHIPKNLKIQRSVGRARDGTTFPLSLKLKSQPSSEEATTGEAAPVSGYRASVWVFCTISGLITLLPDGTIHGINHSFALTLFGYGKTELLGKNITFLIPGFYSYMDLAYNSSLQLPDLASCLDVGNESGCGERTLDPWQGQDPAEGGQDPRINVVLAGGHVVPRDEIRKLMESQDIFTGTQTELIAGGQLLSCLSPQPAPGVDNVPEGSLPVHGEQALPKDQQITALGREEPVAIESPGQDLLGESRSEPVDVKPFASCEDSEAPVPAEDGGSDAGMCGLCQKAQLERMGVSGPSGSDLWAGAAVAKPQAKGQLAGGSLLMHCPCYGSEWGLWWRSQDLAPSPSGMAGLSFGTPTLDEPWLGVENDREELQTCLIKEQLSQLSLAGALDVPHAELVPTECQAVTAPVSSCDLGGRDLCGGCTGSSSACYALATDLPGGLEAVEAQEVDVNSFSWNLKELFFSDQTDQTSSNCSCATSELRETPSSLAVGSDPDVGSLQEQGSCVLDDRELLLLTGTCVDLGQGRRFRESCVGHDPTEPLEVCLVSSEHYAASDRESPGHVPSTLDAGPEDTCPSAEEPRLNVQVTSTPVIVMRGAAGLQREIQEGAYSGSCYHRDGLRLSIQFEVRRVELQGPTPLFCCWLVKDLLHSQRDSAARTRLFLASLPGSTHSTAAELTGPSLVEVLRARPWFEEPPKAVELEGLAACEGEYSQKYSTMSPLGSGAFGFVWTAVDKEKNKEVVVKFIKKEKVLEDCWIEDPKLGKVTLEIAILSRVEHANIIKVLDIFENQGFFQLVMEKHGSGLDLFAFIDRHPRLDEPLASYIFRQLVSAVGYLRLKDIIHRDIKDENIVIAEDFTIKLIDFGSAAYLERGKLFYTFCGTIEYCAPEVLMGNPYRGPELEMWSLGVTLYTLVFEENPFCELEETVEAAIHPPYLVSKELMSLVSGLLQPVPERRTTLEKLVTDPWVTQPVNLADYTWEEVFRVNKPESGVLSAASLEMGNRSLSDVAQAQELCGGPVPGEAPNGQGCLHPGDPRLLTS

SMILES	remaining activity at 0.1 µM [1] [%]	remaining activity at 0.1 µM [2] [%]	remaining activity at 0.1 µM [3] [%]	remaining activity at 0.1 µM [4] [%]	remaining activity at 0.1 µM [5] [%]	remaining activity at 0.1 µM [6] [%]	remaining activity at 0.1 µM [7] [%]	remaining activity at 0.1 µM [8] [%]	remaining activity at 0.1 µM [9] [%]	remaining activity at 0.1 µM [10] [%]	remaining activity at 0.5 µM ([1]; 500 nM) [%]	remaining activity at 0.5 µM ([2]; 500 nM) [%]	remaining activity at 0.5 µM ([3]; 500 nM) [%]	remaining activity at 0.5 µM ([4]; 500 nM) [%]	remaining activity at 0.5 µM ([5]; 500 nM) [%]	remaining activity at 0.5 µM ([6]; 500 nM) [%]	remaining activity at 0.5 µM ([7]; 500 nM) [%]	remaining activity at 0.5 µM ([8]; 500 nM) [%]	remaining activity at 0.5 µM ([9]; 500 nM) [%]	remaining activity at 0.5 µM ([10]; 500 nM) [%]	also measured
CCn1cc(-c2ccnc3[nH]c(-c4cccc(CN(C)C)c4)cc23)c(-c2ccc(NC(=O)N(C)C)cc2)n1 [GSK1070916]	102	111	74.6	130	94.7	114	83.4	96.3	92.7	94.7	–	–	–	–	–	–	–	–	–	–	–
O=C(O)[C@]1(Cc2cccc(Nc3nccs3)n2)CC[C@@H](Oc2cccc(Cl)c2F)CC1 [MK-5108]	100	94.4	39.2	116	95.7	96.6	97.5	102	13.4	104	104	114	12.5	34.5	86.7	123	71.5	90.9	4.4	101	–
O=C(c1cccc(Cl)c1F)N1CCN(Cc2cccc(Nc3nccs3)n2)CC1 [MK-8745]	–	–	–	–	–	–	–	–	–	–	103	114	36.4	146	49.7	105	82.7	95.8	63.4	101	% Enzyme Activity (relative to DMSO controls) ([1]; 500 nM): 101.46%; % Enzyme Activity (relative to DMSO controls) ([2]; 500 nM): 112.12%; % Enzyme Activity (relative to DMSO controls) ([3]; 500 nM): 35.90%; % Enzyme Activity (relative to DMSO controls) ([4]; 500 nM): 140.43%; % Enzyme Activity (relative to DMSO controls) ([5]; 500 nM): 49.53%; % Enzyme Activity (relative to DMSO controls) ([6]; 500 nM): 103.95%; % Enzyme Activity (relative to DMSO controls) ([7]; 500 nM): 82.30%; % Enzyme Activity (relative to DMSO controls) ([8]; 500 nM): 94.27%; % Enzyme Activity (relative to DMSO controls) ([9]; 500 nM): 62.60%; % Enzyme Activity (relative to DMSO controls) ([10]; 500 nM): 98.77%
